# Non-standard residues stand in square brackets, D forms with d. Residues, ends and D or L forms follow the SMILES beside them. *: point of attachment. Boc = CC(C)(C)OC(=O)*; Aib = CC(C)(N)C(=O)O; Bn = c1ccc(C*)cc1
# Target: γ-secretase (Homo sapiens, UniProt P49768)
# Experiment: cell-free γ-secretase assay using detergent-solubilized membranes from HeLa cells and a recombinant APP-based substrate
# Type: biochemical
# Set-up: detergent-solubilized membranes from HeLa cells; endogenous in cells; host or cells: HeLa cells (detergent-solubilized membranes)
# Settings: for IC50: 50% inhibition of Aβ40 production, at least three independent experiments, read-out: Cell-free Assay IC50; for increase in potency over the reference L-decapeptide having SEQ ID NO:10: L-series, cell-free assay
# Procedure: Compounds were tested in a γ-secretase assay using detergent-solubilized membranes from HeLa cells and a recombinant APP-based substrate (Table 2, 18). […] Moreover, the γ-secretase inhibition appears to show dependence on length.
Structure (SMILES),IC50 [nM],increase in potency over the reference L-decapeptide having SEQ ID NO:10 [fold]
"CC[C@H](C)[C@H](NC(=O)[C@@H](NC(=O)[C@@H](NC(=O)C(C)(C)NC(=O)CNC(=O)[C@@H](NC(=O)C(C)(C)NC(=O)[C@H](CC(C)C)NC(=O)OC(C)(C)C)C(C)C)C(C)C)C(C)C)C(=O)NC(C)(C)C(=O)N[C@H](C(=O)N[C@H](C(=O)NC(C)(C)C(=O)N[C@H](C(=O)N[C@H](C(=O)NC(C)(C)C(=O)OC)[C@@H](C)CC)C(C)C)C(C)C)[C@@H](C)OCc1ccccc1 [SEQ ID NO:20 L-peptide, Boc-Leu-Aib-Val-Gly-Aib-Val-Val-Ile-Aib-Thr(OBz)-Val-Aib-Val-Ile-Aib-OMe] (Boc-L[Aib]VG[Aib]VVI[Aib]T(Bn)V[Aib]VI[Aib]-OMe)",4700,–
"CC[C@H](C)[C@H](NC(=O)[C@@H](NC(=O)[C@@H](NC(=O)C(C)(C)NC(=O)CNC(=O)[C@@H](NC(=O)C(C)(C)NC(=O)[C@H](CC(C)C)NC(=O)CNC(=O)OC(C)(C)C)C(C)C)C(C)C)C(C)C)C(=O)NC(C)(C)C(=O)N[C@H](C(=O)N[C@H](C(=O)NC(C)(C)C(=O)N[C@H](C(=O)N[C@H](C(=O)NC(C)(C)C(=O)OC)[C@@H](C)CC)C(C)C)C(C)C)[C@@H](C)OCc1ccccc1 [SEQ ID NO:21 L-peptide, Boc-Gly-Leu-Aib-Val-Gly-Aib-Val-Val-Ile-Aib-Thr(OBz)-Val-Aib-Val-Ile-Aib-OMe] (Boc-GL[Aib]VG[Aib]VVI[Aib]T(Bn)V[Aib]VI[Aib]-OMe)",11000,–
"CC[C@H](C)[C@H](NC(=O)[C@@H](NC(=O)[C@@H](NC(=O)C(C)(C)NC(=O)CNC(=O)[C@@H](NC(=O)C(C)(C)NC(=O)OC(C)(C)C)C(C)C)C(C)C)C(C)C)C(=O)NC(C)(C)C(=O)N[C@H](C(=O)N[C@H](C(=O)NC(C)(C)C(=O)N[C@H](C(=O)N[C@H](C(=O)NC(C)(C)C(=O)OC)[C@@H](C)CC)C(C)C)C(C)C)[C@@H](C)OCc1ccccc1 [SEQ ID NO:19 L-peptide, Boc-Aib-Val-Gly-Aib-Val-Val-Ile-Aib-Thr(OBz)-Val-Aib-Val-Ile-Aib-OMe] (Boc-[Aib]VG[Aib]VVI[Aib]T(Bn)V[Aib]VI[Aib]-OMe)",910 ± 170,–
"CC[C@H](C)[C@H](NC(=O)[C@@H](NC(=O)[C@@H](NC(=O)C(C)(C)NC(=O)CNC(=O)[C@@H](NC(=O)OC(C)(C)C)C(C)C)C(C)C)C(C)C)C(=O)NC(C)(C)C(=O)N[C@H](C(=O)N[C@H](C(=O)NC(C)(C)C(=O)N[C@H](C(=O)N[C@H](C(=O)NC(C)(C)C(=O)OC)[C@@H](C)CC)C(C)C)C(C)C)[C@@H](C)OCc1ccccc1 [SEQ ID NO:18 L-peptide, Boc-Val-Gly-Aib-Val-Val-Ile-Aib-Thr(OBz)-Val-Aib-Val-Ile-Aib-OMe] (Boc-VG[Aib]VVI[Aib]T(Bn)V[Aib]VI[Aib]-OMe)",780,~40
"CC[C@H](C)[C@H](NC(=O)[C@@H](NC(=O)[C@@H](NC(=O)C(C)(C)NC(=O)CNC(=O)OC(C)(C)C)C(C)C)C(C)C)C(=O)NC(C)(C)C(=O)N[C@H](C(=O)N[C@H](C(=O)NC(C)(C)C(=O)N[C@H](C(=O)N[C@H](C(=O)NC(C)(C)C(=O)OC)[C@@H](C)CC)C(C)C)C(C)C)[C@@H](C)OCc1ccccc1 [SEQ ID NO:17 L-peptide, Boc-Gly-Aib-Val-Val-Ile-Aib-Thr(OBz)-Val-Aib-Val-Ile-Aib-OMe] (Boc-G[Aib]VVI[Aib]T(Bn)V[Aib]VI[Aib]-OMe)",360,~100
"CC[C@H](C)[C@H](NC(=O)[C@@H](NC(=O)[C@@H](NC(=O)OC(C)(C)C)C(C)C)C(C)C)C(=O)NC(C)(C)C(=O)N[C@H](C(=O)N[C@H](C(=O)NC(C)(C)C(=O)N[C@H](C(=O)N[C@H](C(=O)NC(C)(C)C(=O)OC)[C@@H](C)CC)C(C)C)C(C)C)[C@@H](C)OCc1ccccc1 [SEQ ID NO:15 L-peptide, Boc-Val-Val-Ile-Aib-Thr(OBz)-Val-Aib-Val-Ile-Aib-OMe] (Boc-VVI[Aib]T(Bn)V[Aib]VI[Aib]-OMe)",10000,–

# These reach a lower IC50. Values come first.
IC50 [nM],increase in potency over the reference L-decapeptide having SEQ ID NO:10 [fold],Structure (SMILES)
28 ± 19,–,"CC[C@@H](C)[C@@H](NC(=O)[C@H](NC(=O)[C@H](NC(=O)C(C)(C)NC(=O)OC(C)(C)C)C(C)C)C(C)C)C(=O)NC(C)(C)C(=O)N[C@@H](C(=O)N[C@@H](C(=O)NC(C)(C)C(=O)N[C@@H](C(=O)N[C@@H](C(=O)NC(C)(C)C(=O)OC)[C@H](C)CC)C(C)C)C(C)C)[C@H](C)OCc1ccccc1 [SEQ ID NO:16 D-peptide, Boc-Aib-Val-Val-Ile-Aib-Thr(OBz)-Val-Aib-Val-Ile-Aib-OMe] (Boc-[Aib][dV][dV][dI][Aib][dT](Bn)[dV][Aib][dV][dI][Aib]-OMe)"
25 ± 3,–,"CC[C@@H](C)[C@@H](NC(=O)[C@H](NC(=O)[C@H](NC(=O)OC(C)(C)C)C(C)C)C(C)C)C(=O)NC(C)(C)C(=O)N[C@@H](C(=O)N[C@@H](C(=O)NC(C)(C)C(=O)N[C@@H](C(=O)N[C@@H](C(=O)NC(C)(C)C(=O)OC)[C@H](C)CC)C(C)C)C(C)C)[C@H](C)OCc1ccccc1 [SEQ ID NO:15 D-peptide, Boc-Val-Val-Ile-Aib-Thr(OBz)-Val-Aib-Val-Ile-Aib-OMe] (Boc-[dV][dV][dI][Aib][dT](Bn)[dV][Aib][dV][dI][Aib]-OMe)"
12 ± 4,–,"CC[C@@H](C)[C@@H](NC(=O)[C@H](NC(=O)[C@H](NC(=O)C(C)(C)NC(=O)CNC(=O)OC(C)(C)C)C(C)C)C(C)C)C(=O)NC(C)(C)C(=O)N[C@@H](C(=O)N[C@@H](C(=O)NC(C)(C)C(=O)N[C@@H](C(=O)N[C@@H](C(=O)NC(C)(C)C(=O)OC)[C@H](C)CC)C(C)C)C(C)C)[C@H](C)OCc1ccccc1 [SEQ ID NO:17 D-peptide, Boc-Gly-Aib-Val-Val-Ile-Aib-Thr(OBz)-Val-Aib-Val-Ile-Aib-OMe] (Boc-G[Aib][dV][dV][dI][Aib][dT](Bn)[dV][Aib][dV][dI][Aib]-OMe)"
14 ± 10,–,"CC[C@@H](C)[C@@H](NC(=O)[C@H](NC(=O)[C@H](NC(=O)C(C)(C)NC(=O)CNC(=O)[C@H](NC(=O)C(C)(C)NC(=O)OC(C)(C)C)C(C)C)C(C)C)C(C)C)C(=O)NC(C)(C)C(=O)N[C@@H](C(=O)N[C@@H](C(=O)NC(C)(C)C(=O)N[C@@H](C(=O)N[C@@H](C(=O)NC(C)(C)C(=O)OC)[C@H](C)CC)C(C)C)C(C)C)[C@H](C)OCc1ccccc1 [SEQ ID NO:19 D-peptide, Boc-Aib-Val-Gly-Aib-Val-Val-Ile-Aib-Thr(OBz)-Val-Aib-Val-Ile-Aib-OMe] (Boc-[Aib][dV]G[Aib][dV][dV][dI][Aib][dT](Bn)[dV][Aib][dV][dI][Aib]-OMe)"
26 ± 21,–,"CC[C@@H](C)[C@@H](NC(=O)[C@H](NC(=O)[C@H](NC(=O)C(C)(C)NC(=O)CNC(=O)[C@H](NC(=O)C(C)(C)NC(=O)[C@@H](CC(C)C)NC(=O)CNC(=O)OC(C)(C)C)C(C)C)C(C)C)C(C)C)C(=O)NC(C)(C)C(=O)N[C@@H](C(=O)N[C@@H](C(=O)NC(C)(C)C(=O)N[C@@H](C(=O)N[C@@H](C(=O)NC(C)(C)C(=O)OC)[C@H](C)CC)C(C)C)C(C)C)[C@H](C)OCc1ccccc1 [SEQ ID NO:21 D-peptide, Boc-Gly-Leu-Aib-Val-Gly-Aib-Val-Val-Ile-Aib-Thr(OBz)-Val-Aib-Val-Ile-Aib-OMe] (Boc-G[dL][Aib][dV]G[Aib][dV][dV][dI][Aib][dT](Bn)[dV][Aib][dV][dI][Aib]-OMe)"

# Source: patent US7501397B2, “Helical peptidomimetics with enhanced activity” (The Brigham and Women's Hospital, Inc., priority 2004, dated 2009)
